According to publication PMC8558867, “Development of BromoTag: A “Bump-and-Hole”–PROTAC System to Induce Potent, Rapid, and Selective Degradation of Tagged Target Proteins” (Journal of Medicinal Chemistry, 2021):
Where two headings read alike, the source gives them in different places.

What was measured:
BromoTag-Brd2 = assay: Dose–response degradation assay (western blot, 6 h) in heterozygous BromoTag-Brd2 HEK293 cells; format: cell-based, human; conditions: for DC50 / Dmax of BromoTag-Brd2 degradation / hook effect: 6 h; for DC50: read-out: DC50 of BromoTag-Brd2 degradation; for Dmax (%) (Ab: Brd2) / Dmax (%) (Ab: Brd4^BD2 L387A) / pDC50 (Ab: Brd2) / pDC50 (Ab: Brd4^BD2 L387A): BromoTagged-Brd2, 6 h; for pDC50 (Ab: Brd2) / pDC50 (Ab: Brd4^BD2 L387A): mean ±S.E of three independent experiments; for hook effect: higher concentrations of 1–10 μM; for pDmax (%) (Ab: Brd4BD2 L387A) / pDmax (%) (Ab:Brd2): supplementary CSV
Description: All dose–response degradation assays were performed on the genotype-verified heterozygous BromoTag-Brd2 HEK293 cell line. Heterozygous BromoTag-Brd2 HEK293 cells were plated at a density of 5 × 10^5 cells per well of a six-well healthy plate a day before initiation of the titration experiment. PROTAC compounds were dissolved in DMSO at a concentration of 10 mM; from these stock concentrations, PROTAC compounds were diluted to appropriate concentrations using DMSO in the range of 10 μM to 1 nM. […] Control compounds such as MZ1 and cis-MZ1 were similarly dissolved in DMSO to an appropriate concentration. […] The cells were washed twice with PBS before being harvested.
The membranes were blocked for 1 h prior to incubation with the primary antibodies using 5% Milk TBST. […] Following overnight incubation with the primary antibodies at 4 °C, the membranes were incubated with secondary antibodies (anti-rabbit, Abcam AB216773, 1:5000 or anti-mouse, Abcam AB216774, 1:5000) and hFABTM rhodamine anti-tubulin antibody (Biorad, 12004165, 1:10,000) for 1 h and then imaged with a Bio-Rad imager (LI-COR Biosciences). All western blots were analyzed for band intensities using Image Lab from Bio-Rad (LI-COR, Biosciences). The data extracted from these blots were then plotted and analyzed using Prism (v. 8.2.0, GraphPad).

[1] = test system: untagged Brd2, Brd3, Brd4; assay: Off-target degradation of endogenous BET proteins (western blot) in heterozygous BromoTag-Brd2 HEK293 cells; format: cell-based, human
From the text: To establish the BromoTag platform and support the degrader structure–activity relationships (SARs) to identify the best compound, we sought a practical and simple system that enables us to best optimize not only the degradation efficiency but also the selectivity profile of our degraders. To this end, the endogenous BET family protein Brd2 was chosen as a model target due to the availability of a well-established antibody for Brd2 detection, and the expression of a single protein isoform detected as a single band in the western blot.[24] Because Brd2 contains endogenous bromodomains and is degraded by 1 and other BET PROTACs, we reasoned that a heterozygous knock-in cell line allows us to monitor simultaneously both on-target degradation (BromoTagged-Brd2) and off-target degradation (untagged Brd2) using the same antibody. Together with the potential off-target degradation of the other BET proteins Brd3 and Brd4, this system thus enables us to best monitor protein degradation selectivity. We therefore decided to add the BromoTag at the N-terminus of the endogenous Brd2 gene locus using CRISPR knock-in methodologies, thereby yielding a chimeric protein bearing three bromodomains (the exogenous BromoTag, in addition to the endogenous Brd2^BD1 and Brd2^BD2). Hereafter, we refer to on-target activity as the degradation of BromoTag-Brd2 and off-target activity as any degradation of either untagged Brd2 or endogenous Brd3 or Brd4.
All dose–response degradation assays were performed on the genotype-verified heterozygous BromoTag-Brd2 HEK293 cell line. Heterozygous BromoTag-Brd2 HEK293 cells were plated at a density of 5 × 10^5 cells per well of a six-well healthy plate a day before initiation of the titration experiment. PROTAC compounds were dissolved in DMSO at a concentration of 10 mM; from these stock concentrations, PROTAC compounds were diluted to appropriate concentrations using DMSO in the range of 10 μM to 1 nM. The compounds were then added to 2 mL of DMEM (Invitrogen, Carlsbad, CA, USA) supplemented with 10% (v/v) FBS (Thermo Fisher, Waltham, MA, USA) and 1% (v/v) penicillin/streptomycin (pen/strep) (#15140122, Thermo Fisher, Waltham, MA, USA) and added to the cells while initiating the experiment. Control compounds such as MZ1 and cis-MZ1 were similarly dissolved in DMSO to an appropriate concentration. All titration experiments were performed for a total of 6 h prior to being harvested and were kept at 37 °C, 5% CO2, and 95% humidity once treatment was applied until right before harvesting. The cells were washed twice with PBS before being harvested.
All cells were harvested on ice with RIPA lysis and extraction buffer (Thermo Fisher Scientific, 89901) supplemented with protease inhibitor cocktail (Merck, 11697498001) and Benzonase Nuclease (Sigma, E1014) before being stored at −20 °C prior to use. Total protein quantity was determined using the BCA protein assay (#23225, Pierce, Rockford, Illinois). The protein concentration was determined using the BCA assay (Thermo Fisher Scientific, 23225). The samples were then prepared and loaded onto NuPAGE 4–12% bis–tris Midi gels (Thermo Fisher Scientific, WG1403A), followed by the transfer of proteins onto nitrocellulose membranes (EMD Millipore). The membranes were blocked for 1 h prior to incubation with the primary antibodies using 5% Milk TBST. The membranes were probed for Brd2 (Abcam, Ab139690, 1:1000), Brd3 (Abcam, Ab50818, 1:4000), Brd4 (Abcam, Ab128874, 1:1000), or our polyclonal Brd4^BD2 L387A antibody. Following overnight incubation with the primary antibodies at 4 °C, the membranes were incubated with secondary antibodies (anti-rabbit, Abcam AB216773, 1:5000 or anti-mouse, Abcam AB216774, 1:5000) and hFABTM rhodamine anti-tubulin antibody (Biorad, 12004165, 1:10,000) for 1 h and then imaged with a Bio-Rad imager (LI-COR Biosciences). All western blots were analyzed for band intensities using Image Lab from Bio-Rad (LI-COR, Biosciences). […]

[2] = 1 nM to 10 μM, 6 h, diastereomeric mixtures
[3] = diastereomeric mixtures, range over the two antibodies

Row | Compound | DC50 (BromoTag-Brd2; diastereomeric mixture) [nM] | Dmax of BromoTag-Brd2 degradation (BromoTag-Brd2; diastereomeric mixtures) [%] | Dmax (%) (Ab: Brd2) (BromoTag-Brd2; diastereomeric mixtures) | Dmax (%) (Ab: Brd4^BD2 L387A) (BromoTag-Brd2; diastereomeric mixtures) | pDC50 (Ab: Brd2) (BromoTag-Brd2; diastereomeric mixtures) | pDC50 (Ab: Brd4^BD2 L387A) (BromoTag-Brd2; diastereomeric mixtures) | hook effect (BromoTag-Brd2; diastereomeric mixtures) | pDmax (%) (Ab: Brd4BD2 L387A) (BromoTag-Brd2) | pDmax (%) (Ab:Brd2) (BromoTag-Brd2) | off-target degradation of untagged Brd2 or the other endogenous BET proteins [1, 2] | off-target degradation of untagged Brd2 or the other endogenous BET proteins [1] | DC50 (BromoTag-Brd2; [3]) [nM]
1 | CCC(C(=O)NCCOCCCOCC(=O)N[C@H](C(=O)N1C[C@H](O)C[C@H]1C(=O)N[C@@H](C)c1ccc(-c2scnc2C)cc1)C(C)(C)C)C1N=C(c2ccc(Cl)cc2)c2c(sc(C)c2C)-n2c(C)nnc21 (relative stereo) [ET-ARV-771 (21), (2S,4R)-1-((2S,15R*)-2-(tert-Butyl)-15-((S*)-4-(4-chlorophenyl)-2,3,9-trimethyl-6H-thieno[3,2-f][1,2,4]triazolo[4,3-a][1,4]diazepin-6-yl)-4,14-dioxo-6,10-dioxa-3,13-diazaheptadecanoyl)-4-hydroxy-N-((S)-1-(4-(4-methylthiazol-5-yl)phenyl)ethyl)pyrrolidine-2-carboxamide] | ~1000 | < 70 | 51 | 69 | 5.7 ± 1.8 | 6.1 ± 0.3 | strong hook effect | 69 | 51 |  |  | 
2 | Cc1ncsc1-c1ccc(CNC(=O)[C@@H]2C[C@@H](O)CN2C(=O)[C@@H](NC(=O)COCCOCCOCCNC(=O)C(C)C2N=C(c3ccc(Cl)cc3)c3c(sc(C)c3C)-n3c(C)nnc32)C(C)(C)C)cc1 (relative stereo) [ME-MZ1 (18), (2S,4R)-1-((2S,17R*)-2-(tert-Butyl)-17-((S*)-4-(4-chlorophenyl)-2,3,9-trimethyl-6H-thieno[3,2-f][1,2,4]triazolo[4,3-a][1,4]diazepin-6-yl)-4,16-dioxo-6,9,12-trioxa-3,15-diazaoctadecanoyl)-4-hydroxy-N-(4-(4-methylthiazol-5-yl)benzyl)pyrrolidine-2-carboxamide] |  |  |  |  |  |  |  | 90 | 92 | induced undesired off-target degradation |  | 
3 | Cc1ncsc1-c1ccc(CNC(=O)[C@@H]2C[C@@H](O)CN2C(=O)[C@@H](NC(=O)COCCOCCOCCOC(=O)[C@H](C)[C@@H]2N=C(c3ccc(Cl)cc3)c3c(sc(C)c3C)-n3c(C)nnc32)C(C)(C)C)cc1 (relative stereo) [ME-OMZ1 (22), (S)-13-((2S,4R)-4-Hydroxy-2-((4-(4-methylthiazol-5-yl)benzyl)carbamoyl)pyrrolidine-1-carbonyl)-14,14-dimethyl-11-oxo-3,6,9-trioxa-12-azapentadecyl (R*)-2-((S*)-4-(4-chlorophenyl)-2,3,9-trimethyl-6H-thieno[3,2-f][1,2,4]triazolo[4,3-a][1,4]diazepin-6-yl)propanoate] |  |  |  |  |  |  |  | 94 | 96 | induced undesired off-target degradation |  | 
4 | CC[C@@H](C(=O)OCCOCCCOCC(=O)N[C@H](C(=O)N1C[C@H](O)C[C@H]1C(=O)N[C@@H](C)c1ccc(-c2scnc2C)cc1)C(C)(C)C)[C@@H]1N=C(c2ccc(Cl)cc2)c2c(sc(C)c2C)-n2c(C)nnc21 (relative stereo) [ET-OARV-771 (25), 2-(3-(2-(((S)-1-((2S,4R)-4-Hydroxy-2-(((S)-1-(4-(4-methylthiazol-5-yl)phenyl)ethyl)carbamoyl)pyrrolidin-1-yl)-3,3-dimethyl-1-oxobutan-2-yl)amino)-2-oxoethoxy)propoxy)ethyl (R*)-2-((S*)-4-(4-chlorophenyl)-2,3,9-trimethyl-6H-thieno[3,2-f][1,2,4]triazolo[4,3-a][1,4]diazepin-6-yl)butanoate] |  | > 75 |  |  |  |  | strong onset of the hook effect |  |  |  | minor off-target degradation of Brd3 | 13 to 16
5 | Cc1ncsc1-c1ccc([C@H](C)NC(=O)[C@@H]2C[C@@H](O)CN2C(=O)[C@@H](NC(=O)COCCCOCCOC(=O)C(C)C2N=C(c3ccc(Cl)cc3)c3c(sc(C)c3C)-n3c(C)nnc32)C(C)(C)C)cc1 (relative stereo) [ME-OARV-771 (24), 2-(3-(2-(((S)-1-((2S,4R)-4-Hydroxy-2-(((S)-1-(4-(4-methylthiazol-5-yl)phenyl)ethyl)carbamoyl)pyrrolidin-1-yl)-3,3-dimethyl-1-oxobutan-2-yl)amino)-2-oxoethoxy)propoxy)ethyl (R*)-2-((S*)-4-(4-chlorophenyl)-2,3,9-trimethyl-6H-thieno[3,2-f][1,2,4]triazolo[4,3-a][1,4]diazepin-6-yl)propanoate] |  |  |  |  |  |  |  | 91 | 91 | induced undesired off-target degradation |  | 
6 | Cc1ncsc1-c1ccc([C@H](C)NC(=O)[C@@H]2C[C@@H](O)CN2C(=O)[C@@H](NC(=O)COCCCOCCNC(=O)C(C)C2N=C(c3ccc(Cl)cc3)c3c(sc(C)c3C)-n3c(C)nnc32)C(C)(C)C)cc1 (relative stereo) [ME-ARV-771 (20), (2S,4R)-1-((2S,15R*)-2-(tert-Butyl)-15-((S*)-4-(4-chlorophenyl)-2,3,9-trimethyl-6H-thieno[3,2-f][1,2,4]triazolo[4,3-a][1,4]diazepin-6-yl)-4,14-dioxo-6,10-dioxa-3,13-diazahexadecanoyl)-4-hydroxy-N-((S)-1-(4-(4-methylthiazol-5-yl)phenyl)ethyl)pyrrolidine-2-carboxamide] |  |  | 60 | 70 | 6.4 ± 0.6 | 6.5 ± 0.4 |  | 70 | 60 | induced undesired off-target degradation |  | 
7 | CCC(C(=O)OCCOCCOCCOCC(=O)N[C@H](C(=O)N1C[C@H](O)C[C@H]1C(=O)NCc1ccc(-c2scnc2C)cc1)C(C)(C)C)C1N=C(c2ccc(Cl)cc2)c2c(sc(C)c2C)-n2c(C)nnc21 (relative stereo) [ET-OMZ1 (23), (S)-13-((2S,4R)-4-Hydroxy-2-((4-(4-methylthiazol-5-yl)benzyl)carbamoyl)pyrrolidine-1-carbonyl)-14,14-dimethyl-11-oxo-3,6,9-trioxa-12-azapentadecyl (R*)-2-((S*)-4-(4-chlorophenyl)-2,3,9-trimethyl-6H-thieno[3,2-f][1,2,4]triazolo[4,3-a][1,4]diazepin-6-yl)butanoate] |  | > 75 |  |  | 7.9 ± 0.2 | 7.1 | strong onset of the hook effect |  |  |  | no observable off-target degradation | 13 to 80
8 | CCC(C(=O)NCCOCCOCCOCC(=O)N[C@H](C(=O)N1C[C@H](O)C[C@H]1C(=O)NCc1ccc(-c2scnc2C)cc1)C(C)(C)C)C1N=C(c2ccc(Cl)cc2)c2c(sc(C)c2C)-n2c(C)nnc21 (relative stereo) [ET-MZ1 (19), (2S,4R)-1-((2S,17R*)-2-(tert-Butyl)-17-((S*)-4-(4-chlorophenyl)-2,3,9-trimethyl-6H-thieno[3,2-f][1,2,4]triazolo[4,3-a][1,4]diazepin-6-yl)-4,16-dioxo-6,9,12-trioxa-3,15-diazanonadecanoyl)-4-hydroxy-N-(4-(4-methylthiazol-5-yl)benzyl)pyrrolidine-2-carboxamide] |  |  |  |  | 6.5 ± 0.2 | 6.6 ± 0.6 | no hook effect |  |  |  | no observable off-target degradation | 250 to 360
